According to the NIST ThermoML archive (doi:10.1021/je9000679):

Settings: for surface tension liquid-gas: Maximal bubble pressure; for mass density: 101.33 kPa, Liquid

CCCCCC[n+]1ccccc1.[O]=[Re](=[O])(=[O])[O-] [1-hexylpyridinium perrhenate]
Settings	mass density [kg/m3]	surface tension liquid-gas [mN/m]
293.15 K	1794.6	34.4
298.15 K	1787	34
303.15 K	1779	33.6
308.15 K	1771.3	33.2
313.15 K	1765	33
318.15 K	1759	32.6
323.15 K	1751.4	32.3
328.15 K	1743.9	32
333.15 K	1738	31.8
338.15 K	1732.3	31.5
343.15 K	1726.9	31.1
